Literature values, collected in patent publication US20060275209A1, “Methods of [11c]-radiolabelling phenothiazine and phenothiazine-like compounds” (priority 2003, published 2006).

Legend:
[1] = system: melanoma cells; settings: diffuses through the cellular membranes
[2] = forms a charge transfer complex with the pigment

## CN(C)c1ccc2nc3ccc(N(C)C)cc3[s+]c2c1.[Cl-] [Methylene blue, 3,7-bis(dimethylamino)phenothiazine-5-ium chloride]
[1]
  accumulation in melanoma cells: accumulates selectively
[2]
  affinity to melanin: very high affinity
